According to ChEMBL document CHEMBL5104139, “A critical update on the strategies towards small molecule inhibitors targeting Serine/arginine-rich (SR) proteins and Serine/arginine-rich proteins related kinases in alternative splicing” (Bioorg Med Chem, 2022):
Blank lines part the entries; values can stand above or below the compound they belong to.

How the values were obtained:
[1] = biological target: Cyclin-dependent kinase 5 (Homo sapiens, UniProt Q00535); experiment: Inhibition of CDK5 (unknown origin)
[2] = biological target: Glycogen synthase kinase-3 (Homo sapiens, UniProt P49840+P49841); experiment: Inhibition of GSK3 (unknown origin); type: protein assay
[3] = biological target: T1, Dual specificity tyrosine-phosphorylation-regulated kinase 1A (Homo sapiens, UniProt Q13627)
[4] = biological target: Dual specificity protein kinase CLK2 (Homo sapiens, UniProt P49760)
[5] = biological target: T2, Serine/arginine-rich splicing factor 6 (Homo sapiens, UniProt Q13247); experiment: Inhibition of SRSF6 (unknown origin)
T2 sequence (Q13247 whole entry): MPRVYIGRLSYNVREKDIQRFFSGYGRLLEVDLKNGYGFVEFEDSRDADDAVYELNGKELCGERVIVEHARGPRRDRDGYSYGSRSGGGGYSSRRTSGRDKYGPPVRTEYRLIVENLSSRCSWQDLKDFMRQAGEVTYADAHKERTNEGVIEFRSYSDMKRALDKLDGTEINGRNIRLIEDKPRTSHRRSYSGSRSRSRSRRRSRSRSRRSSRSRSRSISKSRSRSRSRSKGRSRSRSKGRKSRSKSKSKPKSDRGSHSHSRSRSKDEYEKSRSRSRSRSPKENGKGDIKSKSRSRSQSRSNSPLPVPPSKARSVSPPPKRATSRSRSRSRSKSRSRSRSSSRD

[6] = biological target: T1, Dual specificity tyrosine-phosphorylation-regulated kinase 1A; experiment: Inhibition of DYRK1A (unknown origin) at 1 uM relative to control
[7] = test system: K562; experiment: Cytotoxicity against human K562 cells; type: functional, cell-based
[8] = test system: HL-60; experiment: Cytotoxicity against HL-60 cells; type: functional, cell-based; settings: Homo sapiens
[9] = biological target: SRSF protein kinase 2 (Homo sapiens, UniProt P78362)
[10] = biological target: SRSF protein kinase 1 (Homo sapiens, UniProt Q96SB4)
Sequence of SRSF protein kinase 1 (Q96SB4 whole entry): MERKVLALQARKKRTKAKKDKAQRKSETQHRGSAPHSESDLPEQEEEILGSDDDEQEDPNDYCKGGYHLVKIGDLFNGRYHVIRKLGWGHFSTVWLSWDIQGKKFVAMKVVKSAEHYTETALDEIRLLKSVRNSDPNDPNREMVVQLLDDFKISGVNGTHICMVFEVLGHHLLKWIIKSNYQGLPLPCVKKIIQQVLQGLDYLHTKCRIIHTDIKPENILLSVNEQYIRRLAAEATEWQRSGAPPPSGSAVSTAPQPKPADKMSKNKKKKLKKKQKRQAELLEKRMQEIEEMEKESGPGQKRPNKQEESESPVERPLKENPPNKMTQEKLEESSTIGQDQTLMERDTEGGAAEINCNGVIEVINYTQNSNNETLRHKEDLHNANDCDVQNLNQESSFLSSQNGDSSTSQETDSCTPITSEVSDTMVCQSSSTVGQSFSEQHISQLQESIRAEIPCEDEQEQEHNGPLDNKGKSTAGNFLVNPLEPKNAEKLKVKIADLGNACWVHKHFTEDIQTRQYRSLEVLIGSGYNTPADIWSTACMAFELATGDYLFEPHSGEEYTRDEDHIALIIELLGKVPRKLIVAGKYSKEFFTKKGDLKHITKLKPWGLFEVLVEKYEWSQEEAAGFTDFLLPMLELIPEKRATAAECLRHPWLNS

Sequence of Cyclin-dependent kinase 5 (Q00535 whole entry): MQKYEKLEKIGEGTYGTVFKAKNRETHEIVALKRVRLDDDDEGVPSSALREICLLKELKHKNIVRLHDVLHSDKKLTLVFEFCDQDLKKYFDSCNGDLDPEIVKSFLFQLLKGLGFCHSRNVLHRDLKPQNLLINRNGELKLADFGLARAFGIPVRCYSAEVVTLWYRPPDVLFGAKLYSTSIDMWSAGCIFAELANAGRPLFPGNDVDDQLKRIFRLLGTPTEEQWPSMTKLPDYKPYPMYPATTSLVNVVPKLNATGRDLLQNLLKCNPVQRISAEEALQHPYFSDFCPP
Sequence of SRSF protein kinase 2 (P78362 whole entry): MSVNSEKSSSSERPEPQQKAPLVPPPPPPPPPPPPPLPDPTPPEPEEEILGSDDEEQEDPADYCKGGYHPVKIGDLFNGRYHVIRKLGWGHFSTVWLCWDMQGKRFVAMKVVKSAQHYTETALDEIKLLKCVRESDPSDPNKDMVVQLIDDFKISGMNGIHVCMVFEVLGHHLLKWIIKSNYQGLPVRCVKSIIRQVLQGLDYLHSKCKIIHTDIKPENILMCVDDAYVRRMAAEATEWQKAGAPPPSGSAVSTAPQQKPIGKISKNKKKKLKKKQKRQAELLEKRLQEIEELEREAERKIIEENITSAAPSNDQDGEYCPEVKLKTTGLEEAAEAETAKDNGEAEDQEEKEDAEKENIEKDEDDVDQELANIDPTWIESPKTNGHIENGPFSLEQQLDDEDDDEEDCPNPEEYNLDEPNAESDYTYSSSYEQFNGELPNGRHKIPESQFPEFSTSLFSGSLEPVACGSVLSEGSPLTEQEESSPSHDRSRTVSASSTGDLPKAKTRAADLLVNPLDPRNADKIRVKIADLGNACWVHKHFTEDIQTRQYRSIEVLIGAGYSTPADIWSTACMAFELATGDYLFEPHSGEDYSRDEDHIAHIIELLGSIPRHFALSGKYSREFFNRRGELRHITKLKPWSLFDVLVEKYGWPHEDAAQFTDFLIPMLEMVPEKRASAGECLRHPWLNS
Sequence of Dual specificity protein kinase CLK2 (P49760 whole entry): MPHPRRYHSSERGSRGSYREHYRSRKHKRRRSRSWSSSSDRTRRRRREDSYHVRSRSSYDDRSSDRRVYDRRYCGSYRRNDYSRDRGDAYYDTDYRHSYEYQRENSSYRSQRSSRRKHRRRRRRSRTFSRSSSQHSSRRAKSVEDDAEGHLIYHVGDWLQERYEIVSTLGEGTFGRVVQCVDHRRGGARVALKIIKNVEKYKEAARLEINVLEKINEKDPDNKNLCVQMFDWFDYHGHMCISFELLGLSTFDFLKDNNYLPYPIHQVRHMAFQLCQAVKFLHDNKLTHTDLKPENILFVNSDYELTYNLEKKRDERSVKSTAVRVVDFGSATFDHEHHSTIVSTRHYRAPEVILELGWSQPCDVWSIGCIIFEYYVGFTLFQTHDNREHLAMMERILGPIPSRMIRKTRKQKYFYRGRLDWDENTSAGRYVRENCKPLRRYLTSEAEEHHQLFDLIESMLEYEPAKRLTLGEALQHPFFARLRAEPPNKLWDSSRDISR

SMILES: O=C(Oc1cc(O)c2c(c1)OC(c1cc(O)c(O)c(O)c1)CC2)c1cc(O)c(O)c(O)c1 (stereo not drawn)
IC50 [4]: 2700 nM

SMILES: CCc1cc2c(cc1CC)CC(NC[C@H](O)c1ccc(O)c3[nH]c(=O)ccc13)C2 [INDACATEROL]
IC50 [5]: 19 µM

SMILES: c1cc(-c2ccc3[nH]ncc3c2)ccn1
inhibition [6]: 84%

SMILES: O=C(Nc1cc(C(F)(F)F)ccc1N1CCCCC1)c1ccncc1
IC50 [10]: 890 nM

More lines, main results first:

IC50 [1]: 2700 nM
IC50 [2]: 380 nM
IC50 [3]: 74 nM
SMILES: C.O=c1oc2cc(O)ccc2c2c1[nH]c1ccccc12

IC50 [1]: 720 nM
IC50 [2]: 310 nM
IC50 [3]: 67 nM
SMILES: O=c1oc2cc(O)ccc2c2c1[nH]c1ccc(O)cc12

IC50 [9]: 203 nM
SMILES: COc1cc(/C=C2/C(=N)N3N=C(C(F)(F)F)SC3=NC2=O)ccc1O
IC50 [7]: 44.7 µM
IC50 [8]: 44.7 µM
